Test results published in US20060210479A1 (Dow Global Technologies Inc., priority 2004, published 2006).
Entries after “also recorded” stand apart in the source; their conditions may differ.

Key:
[1] = system: LNCaP cell line; assay: Chelate permeability: fluorescence of cytoplasm and membrane fractions; format: cell-based, human; conditions: 1 mM chelate, 2 h, Table 4
[2] = system: T84 cell line; assay: as above; format: cell-based, human; conditions: 1 mM chelate, 2 h, Table 4
[3] = system: Caco-2 cell line; assay: as above; format: cell-based, human; conditions: 1 mM chelate, 2 h, Table 4
[4] = system: RBL-2H3 cell line; assay: as above; format: cell-based, rat; conditions: 1 mM chelate, 2 h, Table 4
Protocol: Tb-PCTMB (Tb(III) 3,6,9-tris(methylene phosphonic acid n-butyl ester)-3,6,9,15-tetraazabicyclo[9.3.1]pentadeca-1(15),11,13-triene) was tested for permeability to abnormal and disease-state cells.
RBL-2H3 is a rat basophilic leukemia cell line. These cells were grown in Iscove's Medium supplemented with 2 mM L-glutamnine, penicillin/streptomycin (100 IU/mL, 100 μg/mL) and 10% FBS. Cells were maintained at 5% CO2 and 95% humidity. PZ-HPV-7 cell line was derived from epithelial cells cultured from normal prostate tissue. They were grown in Keratinocyte-Serum Free Medium with human recombinant EGF and bovine pituitary extract supplemented with 50 μg/mL gentamicin and penicillin/streptomycin (100 IU/mL, 100 μg/mL). All media and supplements were purchased from Gibco BRL (Grand Island, N.Y., USA). All cell lines were obtained from ATCC and were maintained at 37° C., 5% CO2 and 95% humidity.
Cells were grown to confluence in T-150 flasks (about 2×10^6 cells). […] Cells were then removed from the flask by manual scraping. Cells were transferred to a 50-mL conical tube and centrifuged (400×g) for 5 minutes and the test material removed.
Cells were grown as described herein (Example 1). Cells were grown to confluence in T-150 flask (about 2×10^6 cells). […] Cells were then removed from the flask by manual scraping. Cells were transferred to a 50-mL conical tube and centrifuged (400×g) for 5 minutes and the test material removed.
Furthermore, one analogue, QCTMP (FIG. 26), having lesser lipophilic character (a free phosphonic acid moiety) was evaluated. […] In this study, the cytoplasm and membrane fractions were extracted by Mem-PER Eukaryotic Membrane Protein Extraction Reagent Kit as described by the manufacturers (Pierce Biotechnology, Rockford, Ill.) and analyzed by a Fluor-S Multilmager.

[5] = system: PZ-HPV-7 normal cell line; assay: as above; format: cell-based; conditions: PZ-HVP-7; 1 mM chelate, 2 h; Table 4
[6] = system: HEK293 cells, normal (non-induced); assay: Permeability of chelates to HEK293 cells, fluorescence of fractions; format: cell-based, human
Protocol: (§1) The human kidney transformed HEK293 cells (obtained from the ATCC) were grown in Eagle's Minimum Essential Medium (EMEM) supplemented with 10% (v/v) heat-inactivated fetal bovine serum, sodium pyruvate, nonessential amino acids and antibiotics in a humidified 5% CO2 atmosphere at 37° C. Medium and supplements were purchased from Gibco bRL (Grand Island, N.Y.). Etoposide was obtained from Sigma (St. Louis, Mo.) and prepared as 20 mM solution in dimethyl sulfoxide (DMSO). For treatments, etoposide was applied to the HEK293 cultures at 1:1000 dilution (final concentration of 20 μM) after cell became 75% confluent. As a control, cells were fed with medium containing 0.1% DMSO in the absence of etoposide. After treatment with etoposide, cells were incubated in a humidified 5% CO2 at 37° C. for 24 hours. HEK293 cells were collected by removing treatment medium and washed 2 times with 10 mM HEPES buffer. Final cell pellets were resuspended in a small amount of HEPES and stored at 4° C. for further study.
(§2) Cells were grown to confluence in T-150 flasks (about 2×10^6 cells). […] After treatment, the chelate or analogue supernatant was discarded and the cells were rinsed three times at room temperature with 10 mM HEPES. Cells were then removed from the flask by manual scraping. Cells were transferred to a 50-mL conical tube and centrifuged (400×g) for 5 minutes and the test material removed. Remaining cells were rinsed twice with cold 10 mM HEPES. Cells were used in cell binding assays.

[7] = system: etoposide-induced (apoptotic) HEK293 cells; assay: Permeability of chelates to apoptotic cells, fluorescence of fractions; format: cell-based, human
Protocol: as §1, §2

[8] = system: cancer cells (LNCaP, Caco-2, T84); assay: Chelate permeability and specificity, cancer cells versus normal cells (summary); format: cell-based, human
[9] = system: Caco-2 cells; assay: Adsorption of chelate compounds to cells (HPLC and mass spectrometry); format: cell-based, human
Source text: (§3) As a prerequisite for the understanding of the functional attributes of Tb-PCTMB and Eu-QCTME for diagnostics and therapeutic purposes, and for other uses, it is useful to synthesize a series of chelate compounds that contain structural elements of both PCTMB and QCTME and test these compounds for adsorption and permeability to different cell lines. The first approach was to test for adsorption to a normal cell line (HEK293) and to two epithelial cancer cell lines (LNCaP and Caco-2). The second approach, described in this example, involves testing only the compounds that adsorbed in the cancer cell lines and not in the normal cell lines for permeability. Adsorption and permeability of the compounds to epithelial cancer cell lines and a normal cell line was measured through the detection of the compound by HPLC and mass spectrometry.
(§4) Cell cultures. LNCaP cell line is a human prostate carcinoma. Cells were grown in RPMI 1640 Medium supplemented 10% FBS, 2 mM L-glutamine, glucose (2 g/L) augmented with gentamicin (50 μg/mL), penicillin/streptomycin (100 IU/mL/100 μg/mL) and amphotericin B (2.5 μg/mL). Caco-2 cell line is a human colorectal carcinoma. These cells were grown in Eagle's Minimum Essential Medium supplemented with 20% FBS, Earle's BSS, 2 mM L-glutamine, 1.0 mM sodium pyruvate, 0.1 mM nonessential amino acids augmented with gentamicin (50 μg/mL), penicillin/streptomycin (100 IU/mL/100 μg/mL), and amphotericin B (2.5 μg/mL). The human kidney transformed cells HEK293 were grown in Eagle's Minimum Essential Medium (EMEM) supplemented with 10% (v/v) heat-inactivated fetal bovine serum, sodium pyruvate, nonessential amino acids and antibiotics in a humidified 5% CO2 atmosphere at 37° C. Medium and supplements were purchased from Gibco BRL (Grand Island, N.Y.) and all cell lines were obtained from ATCC.
(§5) Detection of chelate compounds for the determination of adsorption. Cells were grown to confluence in T-150 flasks (about 2×10^7 cells). Before treating with chelate compounds, cells were rinsed twice with warm 10 mM HEPES (Gibco BRL, Grand Island N.Y.), removed from the flask, and transferred to a 50-mL conical tube and centrifuged (400×g) for 5 minutes. The resulting cells were treated with individual chelate compounds with 50 µM of chelate compounds in 10 mM HEPES, pH 7.4, 5 mM KCl, 150 mM NaCl, 0.7 mM NaH2PO4 for 0, 30, and 90 minutes at 37 ° C. After treatment, cells were pelleted by centrifugation and the resulting solution was analyzed by a combination of HPLC and mass spectrometry.

[10] = system: HEK293 cells; assay: as above; format: cell-based, human
Source text: as §3, §4, §5

[11] = system: LNCaP cells; assay: as above; format: cell-based, human
Source text: as §3, §4, §5

[12] = system: HEK293 cells; assay: Permeability: detection of chelate compounds in the cytoplasm; format: cell-based, human; design: key: Absence = 0; presence = +; conditions: 50 μM, 90 minutes at 37 °C
Protocol: as §4
(§6) Detection of chelant compounds for the determination of permeability. Cells were grown to confluence in T-150 flasks (about 2×10^7 cells). Before treating with chelate compounds, cells were rinsed twice with warm 10 mM HEPES (Gibco BRL, Grand Island N.Y.), removed from the flask, and transferred to a 50-mL conical tube and centrifuged (400×g) for 5 minutes. The resulting cells were treated with individual chelate compounds with 50 μM of chelate compounds in 10 mM HEPES, pH 7.4, 5 mM KCl, 150 mM NaCl, 0.7 mM NaH2PO4 for 90 minutes at 37° C. After treatment, cells were pelleted by centrifugation, the cytoplasm was extracted by Mem-PER Eukaryotic Membrane Protein Extraction Reagent Kit as described by manufacturers (Pierce biotechnology, Rockford, Ill.) and the resulting solution was analyzed by a combination of HPLC and mass spectrometry (Table 8).

[13] = system: Caco-2 cells; assay: as above; format: cell-based, human; design: key to Permeability Caco-2: Absence = 0; presence = +
Protocol: as §4, §6

[14] = system: LNCaP cells; assay: as above; format: cell-based, human; design: key to Permeability LNCaP: Absence = 0; presence = +
Protocol: as §4, §6

[15] = molecular target: T1, Cytokeratin 8 (Homo sapiens, UniProt P05787); assay: Elution and identification of target-chelate compound associations; format: binding
T1 construct: Caco-2 and LNCaP cell lines were lysed by sonication or by lysis in hypotonic buffer; endogenous in cells; host or cells: Caco-2 and LNCaP
T1 sequence (P05787 1-483): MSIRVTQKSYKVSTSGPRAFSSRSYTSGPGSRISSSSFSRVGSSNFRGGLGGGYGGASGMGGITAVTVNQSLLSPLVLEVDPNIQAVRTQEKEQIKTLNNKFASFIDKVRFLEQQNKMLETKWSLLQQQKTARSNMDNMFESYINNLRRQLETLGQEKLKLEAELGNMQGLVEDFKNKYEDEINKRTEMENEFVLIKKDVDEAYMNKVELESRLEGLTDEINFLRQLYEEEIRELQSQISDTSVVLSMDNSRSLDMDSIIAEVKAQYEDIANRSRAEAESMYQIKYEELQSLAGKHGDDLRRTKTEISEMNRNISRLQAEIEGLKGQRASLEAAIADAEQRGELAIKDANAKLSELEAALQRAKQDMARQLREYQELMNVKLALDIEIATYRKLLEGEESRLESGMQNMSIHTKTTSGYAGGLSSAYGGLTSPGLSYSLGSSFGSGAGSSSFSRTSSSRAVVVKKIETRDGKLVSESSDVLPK
T1 sequence (P05783 2-430 partner limits assumed): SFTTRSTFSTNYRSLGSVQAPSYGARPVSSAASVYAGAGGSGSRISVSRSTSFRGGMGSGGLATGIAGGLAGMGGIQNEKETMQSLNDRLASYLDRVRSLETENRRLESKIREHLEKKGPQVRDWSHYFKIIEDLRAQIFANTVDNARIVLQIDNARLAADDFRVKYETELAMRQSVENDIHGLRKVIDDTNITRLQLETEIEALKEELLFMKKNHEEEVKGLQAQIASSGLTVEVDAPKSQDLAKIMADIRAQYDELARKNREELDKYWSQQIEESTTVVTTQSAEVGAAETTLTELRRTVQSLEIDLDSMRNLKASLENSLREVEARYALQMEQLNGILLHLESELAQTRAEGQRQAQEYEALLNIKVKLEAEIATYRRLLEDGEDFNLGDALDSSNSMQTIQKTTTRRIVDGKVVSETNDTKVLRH
Protocol: (§7) Identification of novel target-chelate compound associations—Caco-2 and LNCaP cell lines were lysed by sonication or by lysis in hypotonic buffer. Soluble proteins were enriched and captured on an affinity support column. […] Proteins were eluted by adding different chelate compounds that compete for the bound ligand or change the steric structure of a given protein(s). Eluted samples were analyzed by high resolution SDS-PAGE. The protein-chelate compound associations were further analyzed to identify the different proteins by excising the corresponding protein bands from the gel, which was then treated with trypsin and purified. […]

[16] = molecular target: T2, Keratin 18 (Homo sapiens, UniProt P05783); assay: as above; format: binding
T2 construct: Caco-2 and LNCaP cell lines were lysed by sonication or by lysis in hypotonic buffer; endogenous in cells; host or cells: Caco-2 and LNCaP
T2 sequence (P05783 2-430 limits assumed): T1 sequence (P05783 2-430 partner limits assumed)
T2 sequence (P05787 1-483 partner): T1 sequence (P05787 1-483)
Protocol: as §7

[17] = Solubility of chelate compounds; conditions: <5% methanol, ethanol, or DMSO
[18] = HEK293 Normal, 1 mM chelate, 2 hours
[19] = HEK293 Apoptotic (etoposide 20 μM, 24 hours), 1 mM chelate, 2 hours
[20] = 50 µM chelate compound, 0, 30 and 90 minutes at 37 °C, % adsorbed relative to time zero
[21] = 50 μM, 90 minutes at 37 °C, detection in the cytoplasm

## Cc1ccc2nc(CN3CCN(CP(=O)([O-])O)CCN(CP(=O)([O-])O)CCN(CP(=O)([O-])O)CC3)ccc2c1.[Eu+3] [Eu-QCTMP]
[1]
  Fluorescence/mg Cytoplasm: 2287
  Fluorescence/mg Membrane: 2301
[2]
  Fluorescence/mg Cytoplasm: 2230
  Fluorescence/mg Membrane: 2259
[3]
  Fluorescence/mg Cytoplasm: 2300
  Fluorescence/mg Membrane: 2314
[4]
  Fluorescence/mg Cytoplasm: 2311
  Fluorescence/mg Membrane: 2311
[5]
  Fluorescence/mg Cytoplasm: 2276
  Fluorescence/mg Membrane: 2271
[6]; [18]
  Fluorescence/mg Cytoplasm: 1732
  Fluorescence/mg Membrane: 1738
[6]; normal HEK293 cells
  differential fluorescence, cytoplasm versus membrane fractions: did not show any significant differential fluorescence
[7]; [19]
  Fluorescence/mg Cytoplasm: 1450
  Fluorescence/mg Membrane: 1800
[7]; etoposide-induced HEK293 cells
  differential fluorescence, cytoplasm versus membrane fractions: did not show any significant differential fluorescence
[8]
  specificity or selectivity for cancer cells versus normal cells: did not show any specificity or selectivity
[8]; cancer cells
  permeability to cell membranes: did not appear to be permeable

## CCOP(=O)(O)Cc1cc(CP(=O)(O)OCC)cc(CP(=O)(O)OCC)c1 [Compound 8, [3,5-Bis-(Ethoxy-hydroxy-phosphorylmethyl)-benzyl]-phosphonic acid monoethyl ester]
[9]
  adsorption in carcinoma cell line Caco-2: adsorbed
[9]; [20]
  Adsorption Caco-2: +++ (+++ = 41-60%)
[10]
  adsorption in normal cells (HEK293): not adsorbed
[10]; [20]
  Adsorption HEK293: 0 (0 = 0-10%)
[11]
  adsorption in carcinoma cell line LNCaP: adsorbed
[11]; [20]
  Adsorption LNCaP: +++ (+++ = 41-60%)
[12]
  Permeability HEK293: 0
[13]; [21]
  Permeability Caco-2: +
[13]; carcinoma cell line Caco-2
  detection within the cytoplasm: detected within the cytoplasm
[14]; [21]
  Permeability LNCaP: +
[14]; carcinoma cell line LNCaP
  detection within the cytoplasm: detected within the cytoplasm
[15]
  binding to cytokeratin 8 (Seq. ID No. 10): found to bind; also recorded: bind specifically
[16]
  binding to keratin 18 (Seq. ID No. 9): found to bind; also recorded: bind specifically
[17]
  solubility: > 10 mM
